Measured values published in paper PMC9516332 (Frontiers in Oncology, 2022).

Assays:
Test in all cases: Kinase panel profiling at 1 µmol/L (MSA or IMAP), percentage inhibition
Type in all cases: biochemical
[1] = biological target: panel of 255 wild-type kinases (Homo sapiens, UniProt Q15375); settings: kinase EPHA7; 1 µmol/L single concentration; read-out: %-inhibition at 1 µmol/L, EPHA7
[2] = biological target: panel of 255 wild-type kinases (Homo sapiens, UniProt Q14680); settings: MELK; 1 µmol/L single concentration; read-out: %-inhibition, MELK
[3] = biological target: panel of 255 wild-type kinases (Homo sapiens, UniProt Q08345); settings: kinase DDR1; 1 µmol/L single concentration; read-out: %-inhibition at 1 µmol/L, DDR1
[4] = biological target: panel of 255 wild-type kinases (Homo sapiens, UniProt O96017); settings: CHK2 kinase assay; 1 µmol/L single concentration; read-out: %-inhibition CHK2
[5] = biological target: panel of 255 wild-type kinases (Homo sapiens, UniProt Q00534); settings: CDK6/CycD3 kinase assay; 1 µmol/L single concentration; read-out: %-inhibition CDK6/CycD3
[6] = biological target: panel of 255 wild-type kinases (Homo sapiens, UniProt Q9UK32); settings: kinase RSK4; 1 µmol/L single concentration; read-out: %-inhibition at 1 µmol/L, RSK4
[7] = biological target: panel of 255 wild-type kinases (Homo sapiens, UniProt Q9P286); settings: PAK5; 1 µmol/L single concentration; read-out: %-inhibition, PAK5
[8] = biological target: panel of 255 wild-type kinases (Homo sapiens, UniProt Q8N568); settings: kinase DCAMKL2; 1 µmol/L single concentration; read-out: %-inhibition at 1 µmol/L, DCAMKL2
[9] = biological target: panel of 255 wild-type kinases (Homo sapiens, UniProt P11362); settings: kinase FGFR1; 1 µmol/L single concentration; read-out: %-inhibition at 1 µmol/L, FGFR1
[10] = biological target: panel of 255 wild-type kinases (Homo sapiens, UniProt O43683); settings: BUB1/BUB3 kinase assay; 1 µmol/L single concentration; read-out: %-inhibition BUB1/BUB3
[11] = biological target: panel of 255 wild-type kinases (Homo sapiens, UniProt Q96SB4); settings: kinase SRPK1; 1 µmol/L single concentration; read-out: %-inhibition at 1 µmol/L, SRPK1
[12] = biological target: panel of 255 wild-type kinases (Homo sapiens, UniProt P49840); settings: kinase GSK3α; 1 µmol/L single concentration; read-out: %-inhibition at 1 µmol/L, GSK3α
[13] = biological target: panel of 255 wild-type kinases (Homo sapiens, UniProt P06241); settings: kinase FYN [isoform a]; 1 µmol/L single concentration; read-out: %-inhibition at 1 µmol/L, FYN [isoform a]
[14] = biological target: panel of 255 wild-type kinases (Homo sapiens, UniProt P06239); settings: kinase LCK; 1 µmol/L single concentration; read-out: %-inhibition at 1 µmol/L, LCK
[15] = biological target: panel of 255 wild-type kinases (Homo sapiens, UniProt P22455); settings: kinase FGFR4; 1 µmol/L single concentration; read-out: %-inhibition at 1 µmol/L, FGFR4
[16] = biological target: panel of 255 wild-type kinases (Homo sapiens, UniProt P27361); settings: kinase Erk1; 1 µmol/L single concentration; read-out: %-inhibition at 1 µmol/L, Erk1
[17] = biological target: panel of 255 wild-type kinases (Homo sapiens, UniProt Q8TDX7); settings: NEK7; 1 µmol/L single concentration; read-out: %-inhibition, NEK7
[18] = biological target: T1, panel of 255 wild-type kinases (Homo sapiens, UniProt Q9UQB9); settings: AurC kinase assay; 1 µmol/L single concentration; read-out: %-inhibition AurC
T1 sequence (Q9UQB9 1-309): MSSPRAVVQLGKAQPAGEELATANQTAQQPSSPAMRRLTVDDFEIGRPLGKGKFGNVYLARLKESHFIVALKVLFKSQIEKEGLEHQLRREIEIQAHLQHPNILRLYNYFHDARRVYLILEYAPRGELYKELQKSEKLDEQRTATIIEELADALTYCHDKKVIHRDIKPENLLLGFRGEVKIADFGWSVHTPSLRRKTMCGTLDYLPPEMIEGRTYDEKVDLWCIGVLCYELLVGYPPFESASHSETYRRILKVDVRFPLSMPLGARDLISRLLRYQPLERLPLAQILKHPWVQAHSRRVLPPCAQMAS

[19] = biological target: panel of 255 wild-type kinases (Homo sapiens, UniProt P49761); settings: kinase CLK3; 1 µmol/L single concentration; read-out: %-inhibition at 1 µmol/L, CLK3
[20] = biological target: panel of 255 wild-type kinases (Homo sapiens, UniProt P48730); settings: kinase CK1δ; 1 µmol/L single concentration; read-out: %-inhibition at 1 µmol/L, CK1δ
[21] = biological target: panel of 255 wild-type kinases (Homo sapiens, UniProt Q04912); settings: kinase RON; 1 µmol/L single concentration; read-out: %-inhibition at 1 µmol/L, RON
[22] = biological target: panel of 255 wild-type kinases (Homo sapiens, UniProt O75676); settings: MSK2; 1 µmol/L single concentration; read-out: %-inhibition, MSK2
[23] = biological target: panel of 255 wild-type kinases (Homo sapiens, UniProt P04626); settings: kinase HER2; 1 µmol/L single concentration; read-out: %-inhibition at 1 µmol/L, HER2

- inhibition at 1 µM [1]: 68%
- inhibition at 1 µM [2]: 3.6%
- inhibition at 1 µM [3]: 98%
- inhibition at 1 µM [4]: 10%
- inhibition at 1 µM [5]: -1.2%
- inhibition at 1 µM [6]: 37%
- inhibition at 1 µM [7]: 69%
- inhibition at 1 µM [8]: 1.65%
- inhibition at 1 µM [9]: 96%
- inhibition at 1 µM [10]: -0.908%
- inhibition at 1 µM [11]: -4%
- inhibition at 1 µM [12]: 62%
- inhibition at 1 µM [13]: 82%
- inhibition at 1 µM [14]: 98%
- inhibition at 1 µM [15]: 85%
- inhibition at 1 µM [16]: -3%
- inhibition at 1 µM [17]: -3%
- inhibition at 1 µM [18]: 36%
- inhibition at 1 µM [19]: 9%
- inhibition at 1 µM [20]: 0.94%
- inhibition at 1 µM [21]: 2.6%
- inhibition at 1 µM [22]: 3.18%
- inhibition at 1 µM [23]: 20%
SMILES: CO[C@]1(C(=O)N[C@@H](C)c2ccc(-n3cc(F)cn3)nc2)CC[C@H](c2nc(C)cc(Nc3cc(C)[nH]n3)n2)CC1 [pralsetinib]
